pIC50: −log10 of the molar value.
What was measured:
[1] = Inhibition of rat liver glucosidase 2 assessed as inhibition of conversion of G2M9 to G1M9
[2] = Inhibition of rat liver glucosidase 2 assessed as inhibition of conversion of G1M9 to M9
[3] = organism: Rattus norvegicus; test: Inhibition of rat liver glucosidase 2 assessed as inhibition of consumption at 100 uM after 24 hrs
[4] = organism: Rattus norvegicus; test: Inhibition of rat liver glucosidase 2 assessed as inhibition of consumption at 100 uM after 1 hr
[5] = organism: Rattus norvegicus; test: Inhibition of rat liver glucosidase 2 assessed as inhibition of consumption at 100 uM after 20 mins

Row | Structure (SMILES) | pIC50 [1] | pIC50 [2] | inhibition [3] | inhibition [4] | inhibition [5]
1 | O[C@H]1[C@H](O)C=CC(Br)[C@@H]1O (some centres undefined) [BROMOCONDURITOL] | 3.58 | 4.39 | < 10% | 20% | 36%
2 | O[C@H]1[C@H](O)[C@@H](O)CN2CC[C@H](O)[C@H]12 [CASTANOSPERMINE] | 5.89 | 5.96 |  |  | 
3 | OC[C@H]1NC[C@H](O)[C@@H](O)[C@@H]1O [DUVOGLUSTAT] | 5.09 | 4.95 |  |  | 
